From article PMC9643456, “Matching amino acids membrane preference profile to improve activity of antimicrobial peptides” (Communications Biology, 2022)
Values after ≈ are worked out from the molar mass of the structure shown. Read-outs that look alike come from different tables or passages of the source. Square brackets hold non-standard residues; d marks the D form. Peptide text beside a SMILES is read from it.

Key:
human red blood cells = assay: Hemolytic activity; assay type: cell-based
Experimental: Human red blood cells (Zenbio, North Carolina, USA) and peptides were separately diluted in PBS (blood concentration, 8%). The blood cell and peptide solutions were then mixed in 96-well polyethylene plates (SPL, Gyeonggi-do, Korea) and incubated for 18 h at 37 °C. The final concentration of human red blood cells was 4%, while peptide concentrations were 100 μM, 50 μM, 25 μM, 12.5 μM, 6.25 μM, 3.13 μM, 1.56 μM, and 0.78 μM. After incubation, the plates were centrifuged at 1000 × g for 5 min, and the supernatants were transferred to 96-well polyethylene plates. Hemolysis levels were determined by measuring the absorbance at 540 nm with a SpectraMax plate spectrophotometer (Molecular Devices, California, USA). Control samples were treated with 1% Triton X-100 (for 100% hemolysis) or solution with 0 μM peptide (for 0% hemolysis) and melittin (for positive control). Each experiment was performed in triplicate.

MDR S. aureus = assay: microbe, parasite or virus in culture; conditions: CLSI broth microdilution; CAMHB with 50 mg/L Ca2+, 10 mg/L Mg2+; 5 × 10^5 CFU/ml; 18 h 37 °C; triplicate; strain KCCM 40510
From the text: (§1) MDR Pseudomonas aeruginosa (CCARM 2180) was purchased from the Culture Collection of Antimicrobial Resistance Microbes (Seoul, Republic of Korea). MDR Acinetobacter baumannii (ATCC BAA-1605) and MDR Enterococcus faecalis (ATCC 51575) were purchased from the American Type Culture Collection (Manassas, VA, USA). MDR Staphylococcus aureus (KCCM 40510) was purchased from the Korean Culture Center of Microorganisms (Seoul, Republic of Korea). S. aureus (KCTC 1621) was purchased from the Korean Collection for Type Cultures. A. baumannii (KCCM 40203) was purchased from the Korean Culture Center of Microorganisms (Seoul, Republic of Korea).
(§2) To assess antimicrobial activity, the MIC50 and MIC90 were measured using broth microdilution following CLSI guidelines. […] Each experiment was performed in triplicate. Meropenem (Sigma, Darmstadt, Germany) and colistin were used as control antibiotics. Cation-adjusted Mueller–Hinton broth (CAMHB) (Becton, Dickinson and Company, Franklin Lakes, USA) with supplied calcium (50 mg/L) and magnesium (10 mg/L) was used for the CLSI-test condition. Bacteria in midlog phase and peptides were separately diluted in CAMHB. The bacteria and peptide solutions were then mixed in 96-well polyethylene plates (SPL, Gyeonggi-do, Korea) and incubated for 18 h at 37 °C. The final concentration for bacteria was 5 × 10^5 CFU/ml. […] The MIC was defined to be the lowest concentration of peptide without visible turbidity by comparing with control antibiotics with the unaided eye. […] Each experiment was performed in triplicate. MICs in albumin and acetic acid solutions were measured using the same protocol but with 0.2% bovine serum albumin (Bovogen, Keilor, Australia), 0.01% acetic acid (Merck, New Jersey, USA), and CAMHB with both calcium and magnesium. In addition, MICs used in the antibiotic resistance acquisition test, the outer–inner membrane permeation test, and the transmembrane potential test and for FE-SEM were individually determined. The final bacterial concentrations used were as follows: for resistance acquisition, optical density (OD) 0.01; for outer–inner membrane permeability assays (LB), OD 0.1; for the transmembrane potential test, 1 × 10^8 CFU/ml (OD 0.171); […]. Inhibitory activity unidentifiable by direct observation was determined by counting the CFUs. Each experiment was performed at least twice.

MDR A. baumannii = assay: microbe, parasite or virus in culture; conditions: CLSI broth microdilution; CAMHB with 50 mg/L Ca2+, 10 mg/L Mg2+; 5 × 10^5 CFU/ml; 18 h 37 °C; triplicate; strain ATCC BAA-1605
From the text: as §1, §2

`CC[C@@H](C)[C@@H](NC(=O)[C@@H](Cc1c[nH]c2ccccc12)NC(=O)[C@H](NC(=O)[C@@H](CC(C)C)NC(=O)[C@H](N)Cc1c[nH]c2ccccc12)C(C)C)C(=O)N[C@H](Cc1c[nH]c2ccccc12)C(=O)N[C@H](CCCNC(=N)N)C(=O)N[C@H](CCCNC(=N)N)C(=O)N[C@H](CCC(=O)O)C(=O)N[C@H](CCC(N)=O)C(N)=O` [WCopW34] (H-[dW][dL][dV][dW][dI][dW][dR][dR][dE][dQ]-NH2) was tested, and the “Hemolysis percent, 25 μM” value (human red blood cells; red cells of human, 18 h) was -0.18%, the “Hemolysis percent, 50 μM” value (human red blood cells; red cells of human, 18 h, 50) was -0.17% and the “Hemolysis percent, 100 μM” value (human red blood cells; red cells of human, 18 h) was -0.14%.
In the case of `CC[C@@H](C)[C@@H](NC(=O)[C@@H](Cc1c[nH]c2ccccc12)NC(=O)[C@H](NC(=O)[C@@H](CC(C)C)NC(=O)[C@@H](Cc1c[nH]c2ccccc12)NC(=O)[C@H](N)CC(=O)O)C(C)C)C(=O)N[C@H](Cc1c[nH]c2ccccc12)C(=O)N[C@H](CCCNC(=N)N)C(=O)N[C@H](CCCNC(=N)N)C(=O)N[C@H](CCCNC(=N)N)C(N)=O` [WCopW36] (H-[dD][dW][dL][dV][dW][dI][dW][dR][dR][dR]-NH2), the “Minimum inhibitory concentrations, MDR S. aureus” value (MDR S. aureus) is reported as 1.25 µM (≈ 1.86 µg/mL), the “Hemolysis percent, 25 μM” value (human red blood cells; red cells of human, 18 h) is reported as 4.03 ±0.40% and the “Hemolysis percent, 50 μM” value (human red blood cells; red cells of human, 18 h, 50) is reported as 7.48 ±0.90%. For the same compound, the “Hemolysis percent, 100 μM” value (human red blood cells; red cells of human, 18 h) was 9.86 ±1.62%.
`CC(C)C[C@@H](NC(=O)[C@H](N)Cc1c[nH]c2ccccc12)C(=O)N[C@@H](C(=O)N[C@H](Cc1c[nH]c2ccccc12)C(=O)N[C@H](CCCCN)C(=O)N[C@H](Cc1c[nH]c2ccccc12)C(=O)N[C@H](CCCNC(=N)N)C(=O)N[C@H](CCCNC(=N)N)C(=O)N[C@H](CCCNC(=N)N)C(N)=O)C(C)C` [WCopW37] (H-[dW][dL][dV][dW][dK][dW][dR][dR][dR]-NH2) was tested, and the “Minimum inhibitory concentrations, MDR A. baumannii” value (MDR A. baumannii) was 2.5 µM (≈ 3.46 µg/mL), the “Minimum inhibitory concentrations, MDR S. aureus” value (MDR S. aureus) was 5 µM (≈ 6.92 µg/mL) and the “Hemolysis percent, 25 μM” value (human red blood cells; red cells of human, 18 h) was 0.13 ±0.02%. The “Hemolysis percent, 50 μM” value (human red blood cells; red cells of human, 18 h, 50) was 0.08 ±0.01% and the “Hemolysis percent, 100 μM” value (human red blood cells; red cells of human, 18 h) was 0.16 ±0.03%.
For `CC(C)C[C@@H](NC(=O)[C@H](N)Cc1c[nH]c2ccccc12)C(=O)N[C@@H](C(=O)N[C@H](Cc1c[nH]c2ccccc12)C(=O)N[C@H](CC(=O)O)C(=O)N[C@H](Cc1c[nH]c2ccccc12)C(=O)N[C@H](CCCNC(=N)N)C(=O)N[C@H](CCCNC(=N)N)C(=O)N[C@H](CCCNC(=N)N)C(N)=O)C(C)C` [WCopW38] (H-[dW][dL][dV][dW][dD][dW][dR][dR][dR]-NH2), the “Hemolysis percent, 50 μM” value (human red blood cells) was 0.06% and the “Hemolysis percent, 50 μM” value (human red blood cells; red cells of human, 18 h, 50) was 0.06 ±0.06%.
In the case of `CC(C)C[C@@H](NC(=O)[C@H](N)Cc1c[nH]c2ccccc12)C(=O)N[C@@H](C(=O)N[C@H](Cc1c[nH]c2ccccc12)C(=O)N[C@H](CO)C(=O)N[C@H](Cc1c[nH]c2ccccc12)C(=O)N[C@H](CCCNC(=N)N)C(=O)N[C@H](CCCNC(=N)N)C(=O)N[C@H](CCCNC(=N)N)C(N)=O)C(C)C` [WCopW39] (H-[dW][dL][dV][dW][dS][dW][dR][dR][dR]-NH2), the “Hemolysis percent, 25 μM” value (human red blood cells; red cells of human, 18 h) is reported as 0.09%, the “Hemolysis percent, 50 μM” value (human red blood cells; red cells of human, 18 h, 50) is reported as 0.06% and the “Hemolysis percent, 100 μM” value (human red blood cells; red cells of human, 18 h) is reported as 0.36%.
In the case of `CC(C)[C@@H](NC(=O)[C@H](N)Cc1c[nH]c2ccccc12)C(=O)N[C@@H](C(=O)N[C@H](Cc1c[nH]c2ccccc12)C(=O)N[C@@H](C(=O)N[C@H](Cc1c[nH]c2ccccc12)C(=O)N[C@H](CCCNC(=N)N)C(=O)N[C@H](CCCNC(=N)N)C(=O)N[C@H](CCCNC(=N)N)C(N)=O)C(C)C)C(C)C` [WCopW40] (H-[dW][dV][dV][dW][dV][dW][dR][dR][dR]-NH2), the “Hemolysis percent, 25 μM” value (human red blood cells; red cells of human, 18 h) is reported as 0.45%, the “Hemolysis percent, 50 μM” value (human red blood cells; red cells of human, 18 h, 50) is reported as 0.59% and the “Hemolysis percent, 100 μM” value (human red blood cells; red cells of human, 18 h) is reported as 2.14%.
`CC(C)[C@@H](NC(=O)[C@H](N)Cc1c[nH]c2ccccc12)C(=O)N[C@@H](C(=O)N[C@H](Cc1c[nH]c2ccccc12)C(=O)N[C@@H](C(=O)N[C@@H](C(=O)N[C@H](Cc1c[nH]c2ccccc12)C(=O)N[C@H](CCCNC(=N)N)C(=O)N[C@H](CCCNC(=N)N)C(=O)N[C@H](CCCNC(=N)N)C(N)=O)C(C)C)C(C)C)C(C)C` [WCopW42] (H-[dW][dV][dV][dW][dV][dV][dW][dR][dR][dR]-NH2) was tested, and the “Hemolysis percent, 25 μM” value (human red blood cells; red cells of human, 18 h) was 7.14%, the “Hemolysis percent, 50 μM” value (human red blood cells; red cells of human, 18 h, 50) was 16.66% and the “Hemolysis percent, 100 μM” value (human red blood cells; red cells of human, 18 h) was 26.66%.
